Earlier results in US20100130442A1, “Lung Injury Treatment” (priority 2007, published 2010).

Tests used:
[1] = system: lung injury induced by intratracheal LPS in C57BL/6 mice; details: spontaneously ventilating C57BL/6 mice
[2] = system: mechanical ventilation induced lung injury; details: in vivo

CCCCCCCCCCCCC/C=C/[C@@H](O)[C@@H](N)COP(=O)(O)O [Sphingosine-1-Phosphate]
lung injury induced by intratracheal LPS [1]: attenuates
mechanical ventilation induced lung injury [2]: blocked
